The target in the assay is T1, EPHB1 (Homo sapiens, UniProt P54762).
T1 construct: purchased Thermo Fisher Scientific (Life Technologies) SelectScreen
As to the kind of experiment: SelectScreen Z'LYTE. Type of assay: biochemical. The procedure, abridged: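 SelectScreen broad panel; activity (Z'LYTE, Adapta) plus binding formats. ATP: Km app for CSF1R Z'LYTE; 10 for CAMK1 Adapta. Readout = % per kinase.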

T1 sequence (P54762 18-984): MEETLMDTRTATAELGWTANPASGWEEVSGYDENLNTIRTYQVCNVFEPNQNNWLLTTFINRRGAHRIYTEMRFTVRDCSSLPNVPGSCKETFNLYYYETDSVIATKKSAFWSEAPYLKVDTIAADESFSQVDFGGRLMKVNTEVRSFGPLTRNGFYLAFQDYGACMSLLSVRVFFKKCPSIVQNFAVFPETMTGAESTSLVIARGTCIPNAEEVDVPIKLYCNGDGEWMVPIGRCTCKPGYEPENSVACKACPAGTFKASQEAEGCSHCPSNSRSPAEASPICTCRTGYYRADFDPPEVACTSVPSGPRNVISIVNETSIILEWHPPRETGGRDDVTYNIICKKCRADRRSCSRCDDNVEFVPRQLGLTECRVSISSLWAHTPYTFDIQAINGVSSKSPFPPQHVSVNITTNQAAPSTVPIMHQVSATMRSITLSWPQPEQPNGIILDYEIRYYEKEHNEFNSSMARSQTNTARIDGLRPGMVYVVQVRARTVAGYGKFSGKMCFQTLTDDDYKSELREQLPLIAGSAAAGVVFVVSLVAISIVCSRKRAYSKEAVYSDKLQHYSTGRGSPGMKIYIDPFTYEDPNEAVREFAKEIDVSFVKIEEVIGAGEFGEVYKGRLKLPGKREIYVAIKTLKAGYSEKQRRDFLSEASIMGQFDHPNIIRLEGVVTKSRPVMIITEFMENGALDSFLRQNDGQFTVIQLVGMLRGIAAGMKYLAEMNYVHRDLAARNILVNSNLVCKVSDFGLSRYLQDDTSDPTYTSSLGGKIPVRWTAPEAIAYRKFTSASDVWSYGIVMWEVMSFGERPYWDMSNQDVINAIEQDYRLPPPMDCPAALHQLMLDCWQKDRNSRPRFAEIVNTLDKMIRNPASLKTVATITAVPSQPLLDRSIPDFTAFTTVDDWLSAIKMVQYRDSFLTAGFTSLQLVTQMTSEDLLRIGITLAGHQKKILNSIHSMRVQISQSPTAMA

`CN(C(=O)CN1CCOCC1)c1ccc2sc3c(-c4cccc5c(=O)cc(N6CC7CCC(C6)O7)oc45)cccc3c2c1` [NU5455]: the inhibition at 1 µM is 5.1%.

What is called inhibition is the drop in the measured response relative to a control, in per cent. The low end stands for a weak effect, the high end for a strong effect.
